Assay results: patent US20110021579A1, “PERITONEUM PROTECTING AGENT” (TOKAI UNIVERSITY EDUCATIONAL SYSTEM, priority 2005, published 2011)

How the values were obtained:
[1] = test system: VEGF; assay: VEGF mRNA expression in mesenterium by semiquantitative RT-PCR; assay type: in vivo, Sprague-Dawley rats; conditions: peritoneal tissue, uremic rats with PD plus pyridoxamine, FIG. 7B
From the text: (§1) Six-week-old male Sprague-Dawley rats weighing 200±3 g (CLER Japan, Inc., Tokyo) were randomly assigned to: sham-operated control rats (Group 1: n=6); uremic rats without peritoneal dialysis (Group 2: n=12); and uremic rats undergoing peritoneal dialysis (n=24). The uremic rats undergoing peritoneal dialysis were further divided into two groups: a group dialyzed with 4.25% Dianeal (registered trademark) (3.86% glucose, 2.5 mEq/CAPD fluid, Baxter Healthcare Corp., Round Lake; IL, USA) (Group 3: n=12); and a group peritoneally dialyzed with 4.25% Dianeal (registered trademark) containing pyridoxamine (Pridorine, Biostratum Inc., NC, USA) at 5 mg/l (Group 4: n=12). […]
(§2) Expression of VEGF or FGF2 (mesenterium) mRNA was analyzed by using semiquantitative reverse transcriptase-polymerase chain reaction (RT-PCR). […]
(§3) β-actin was used as an internal standard of RNA to enable comparison of RNA levels among different samples. […] The PCR products that were resolved by electrophoresis on a 2% agarose gel and stained using ethidium bromide were quantified by measuring the signal intensity with a quantitation program (NIH image software). The mRNA was determined in triplicate and the results were averaged for each experiment. […] The results were averaged and expressed as means±SD. […]

[2] = test system: pentosidine (AGE and carbonyl stress marker); assay: Pentosidine content in peritoneal membrane by HPLC; assay type: in vivo, Sprague-Dawley rats
From the text: (§4) Six-week-old male Sprague-Dawley rats weighing 200±3 g (CLER Japan, Inc., Tokyo) were randomly assigned to: sham-operated control rats (Group 1: n=6); uremic rats without peritoneal dialysis (Group 2: n=12); and uremic rats undergoing peritoneal dialysis (n=24). The uremic rats undergoing peritoneal dialysis were further divided into two groups: a group dialyzed with 4.25% Dianeal (registered trademark) (3.86% glucose, 2.5 mEq/CAPD fluid, Baxter Healthcare Corp., Round Lake; IL, USA) (Group 3: n=12); and a group peritoneally dialyzed with 4.25% Dianeal (registered trademark) containing pyridoxamine (Pridorine, Biostratum Inc., NC, USA) at 5 mg/l (Group 4: n=12).
(§5) Uremic models were generated by 5/6 nephrectomy according to previous reports [Lameire N, et al. Kidney Int 54: 2194-2206, 1998; and Kleinknecht C, et al., Kidney Int 47: S51-S54, 1995]. […]
(§6) After 6 weeks of PD, 4.25% Dianeal (registered trademark) was injected from the access port and a peritoneal equilibration test (60 minutes) was performed. […] Mesenterium was excised and assessed by light microscopy or immunohistochemistry.
The pentosidine content in the rat peritoneal membrane was assessed as follows, using HPLC in accordance with an already-reported method [Miyata T, et al., J. Am. […] The effluent was monitored using a fluorescence detector (RF-10A: Shimadzu, Tokyo) at an excitation-emission wavelength of 335/385 nm. […]

[3] = test system: FGF-2; assay: FGF-2 mRNA expression in mesenterium by semiquantitative RT-PCR; assay type: in vivo, Sprague-Dawley rats; conditions: peritoneal tissue, uremic rats with PD plus pyridoxamine, FIG. 7C
From the text: as §1, §2, §3

[4] = test system: VEGF, FGF-2, vWF, AGEs, and TGF-β1; assay: Immunohistochemical analysis of mesenterium tissue sections; assay type: in vivo, Sprague-Dawley rats; conditions: rats treated with pyridoxamine; prominent in uremic rats with PD, FIG. 8
From the text: as §4
Uremic models were generated by 5/6 nephrectomy according to previous reports [Lameire N, et al. Kidney Int 54: 2194-2206, 1998; and Kleinknecht C, et al., Kidney Int 47: S51-S54, 1995]. The animals were provided free access to standard experimental rat chow (CE2: CLER Japan, Inc., Tokyo) containing 1.06% calcium, 0.9% phosphate, and 21% proteins, and tap water until the evening prior to slaughter. […]
(§7) After 6 weeks of PD, 4.25% Dianeal (registered trademark) was injected from the access port and a peritoneal equilibration test (60 minutes) was performed. […] Mesenterium was excised and assessed by light microscopy or immunohistochemistry. […]

[5] = test system: vessels in the peritoneal tissue; assay: Number of vessels in mesenterium (von Willebrand factor staining, image analysis); assay type: in vivo, Sprague-Dawley rats; conditions: uremic rats with PD plus pyridoxamine; uremia alone 1.87-fold, PD 5.83-fold
From the text: as §4, §5, §7
The number of vessels was assessed in the sections stained for von Willebrand factor by image analysis using a WinROOF software (Mitani. Corporation, Tokyo). […]

[6] = Biochemical data and body weight of subtotally nephrectomized uremic rats undergoing peritoneal dialysis; assay type: in vivo; conditions: 6-week PD with pyridoxamine 5 mg/l (Group 4), 21 weeks, mean ± SD
From the text: as §4, §5, §6
(§8) The concentrations of glucose, creatinine, urea, total cholesterol, and triglyceride in plasma and peritoneal dialysate were measured with an autoanalyzer (Hitachi 736-60, Hitachi Co. Ltd., Tokyo).

[7] = test system: peritoneal membrane of uremic rats; assay: Functional analysis of peritoneal membrane by peritoneal equilibration test (PET); assay type: in vivo, Sprague-Dawley rats
From the text: as §4
Uremic models were generated by 5/6 nephrectomy according to previous reports [Lameire N, et al. Kidney Int 54: 2194-2206, 1998; and Kleinknecht C, et al., Kidney Int 47: S51-S54, 1995]. The animals were provided free access to standard experimental rat chow (CE2: CLER Japan, Inc., Tokyo) containing 1.06% calcium, 0.9% phosphate, and 21% proteins, and tap water until the evening prior to slaughter. On the 13th week, Rat-o-Ports with a 13.5 cm catheter (Access Technologies, Norfolk Medical, Skokie, Ill., USA) were implanted into all the rats under anesthetization of isoflurane. The Rat-o-ports were implanted subcutaneously in the neck, after one week of which the peritoneal dialysis with 30 ml of dialysate was initiated twice a day. The PD was continued for 6 weeks [Zweers MM, et al., Nephrol Dial Transplant 16: 651-654, 2001]. Before the initiation of the peritoneal dialysis, four, five, and two rats had died respectively in Group 2, Group 3, and Group 4. […]
as §6, §8
The dialysate/plasma (D/P) ratio of Cr (A) and urea (B), and the absorption of glucose from the dialysate (D/D0) (C) were assessed, during a 60-minute exchange with 20 ml of 3.85% glucose dialysate, in control rats (Group 1), uremic rats without PD (Group 2), uremic rats undergoing peritoneal dialysis in the absence of pyridoxamine (Group 3), and uremic rats undergoing peritoneal dialysis in the presence of 5 mg/L pyridoxamine (Group 4). a: p<0.01 vs. Group 1. b: p<0.01 vs. Group 2. c: p<0.01 vs. Group 3. d: p<0.01 vs. Group 4. e: p<0.05 vs. Group 3. f: p<0.05 vs. Group 4.

Structure (SMILES): Cc1ncc(CO)c(CN)c1O [pyridoxamine]
- VEGF mRNA expression (ratio over β-actin) [1]: equivalent levels to those of uremic rats without PD
- Slope of the regression line between pentosidine content and renal failure ([2]; Group 4, FIG. 5B, in words): lowered the slope of the regression line
- Tissue pentosidine content ([2]; Group 4 vs Group 3, FIG. 5A): significantly lowered
- FGF-2 mRNA expression (ratio over β-actin) [3]: equivalent levels to those of uremic rats without PD
- VEGF, FGF-2, vWF, AGEs, and TGF-β1 stainings in capillaries of the mesenterium [4]: only faint stainings
- Increase in vessel number (ratio to number of vessels of healthy control animals) [5]: 2.68 fold
- Body weight [6]: 419 ± 29 g
- Absorption rate of glucose from the dialysate (D/D0) ([7]; 6-week treatment, pyridoxamine 5 mg/L in dialysate, 60-minute PET, vs Group 3): significantly lowered
- Transport rate of small solutes (creatinine, urea) from the plasma (D/P ratio) ([7]; 6-week treatment, pyridoxamine 5 mg/L in dialysate, 60-minute PET, vs uremic PD rats without pyridoxamine (Group 3)): significantly lowered
- Slope of the regression line between increased permeability for small solutes (creatinine and glucose) and degree of renal failure ([7]; Group 4, FIGS. 3A and B): dramatically lowered
- Influence of uremia on membrane permeability ([7]; pyridoxamine treatment, uremic rats with PD): completely dissipated
